These results are taken from patent US20240148821A1, “PHARMACEUTICAL USE OF CYCLIC PEPTIDE COMPOUND” (CHUGAI SEIYAKU KABUSHIKI KAISHA, priority 2021, published 2024).

Numbered stars: 1 amine (or outer) side, 2 acyl side, 3 side chain; on linkers, the order of the positions; unused ones are H or OH. Bridge positions count the residues as written; N and C are the ends. Square brackets hold non-standard residues; d marks the D form. Peptide text beside a SMILES is read from it. * marks the point of attachment. hPhe(3,5-F2-4-CF3) = N[C@@H](CCc1cc(F)c(C(F)(F)F)c(F)c1)C(=O)O; hPhe(3-Cl-4-CF3) = N[C@@H](CCc1ccc(C(F)(F)F)c(Cl)c1)C(=O)O; hPhe(3-F,4-CF3) = N[C@@H](CCc1ccc(C(F)(F)F)c(F)c1)C(=O)O; ACHC(1R,2R) = O=C([C@@H]1CCCC[C@H]1N[*:1])[*:2]; Piperazinyl(4-(3-oxetanyl)) = C1OCC1N1CCN(*)CC1; Thiomorpholino(1,1-dioxo) = O=S1(=O)CCN(*)CC1; NMePhe(4-Cl) = CN[C@@H](Cc1ccc(Cl)cc1)C(=O)O; NMePhe(4-Me) = CN[C@@H](Cc1ccc(C)cc1)C(=O)O; NMedβ3hAla = C[C@H](CC(=O)[*:2])N(C)[*:1]; NMeGly(cPent) = CN[C@H](C(=O)O)C1CCCC1; Phe(2-Cl) = N[C@@H](Cc1ccccc1Cl)C(=O)O; Phe(3-I) = N[C@@H](Cc1cccc(I)c1)C(=O)O; Pro(4,4-F2) = O=C(O)[C@@H]1CC(F)(F)CN1; NMeAla(cPr) = CN[C@@H](CC1CC1)C(=O)O; NMeCha = CN[C@@H](CC1CCCCC1)C(=O)O; NMeChg = CN[C@H](C(=O)O)C1CCCCC1; NMeI = CC[C@H](C)[C@H](NC)C(=O)O; NMeD = CN[C@@H](CC(=O)O)C(=O)O; NMeL = CN[C@@H](CC(C)C)C(=O)O; NMeNva = CCC[C@H](NC)C(=O)O; NMeV = CN[C@H](C(=O)O)C(C)C; d(β3hA) = C[C@@H](N)CC(=O)O; dNMeS = CN[C@H](CO)C(=O)O; Morpholide = C1CN(*)CCO1; NMeA = CN[C@@H](C)C(=O)O; NMeAib = CNC(C)(C)C(=O)O; Piperidide = C1CCN(*)CC1; Pra = C#CC[C@H](N)C(=O)O; Pyrrolidide = C1CCN(*)C1; dNMeA = CN[C@H](C)C(=O)O; Ac5c = NC1(C(=O)O)CCCC1; Aze = O=C(O)[C@@H]1CCN1; Isopentyl = CC(C)CC*; Sar = CNCC(=O)O Bounds are passed on as bounds.

The experiment has as its system Human pancreatic cancer cell line AsPC-1 (G12D mutation Kras). Put plainly: AsPC-1 cell growth inhibition (AsPC-1 CGI). The format is cell-based. Conditions: read-out: AsPC-1 cell growth inhibition, 50% growth inhibitory concentration (IC50 value); 96 hours, CellTiter-Glo, values classified in ranges. Background: Cellular ATP, detected with luciferase, serves as a proxy for viable cell number.
Method: Test compounds were serially dilated with dimethyl sulfoxide, and 200 nL was then dispensed to a U-bottom 96-well plate using Labcyte Echo. […] The cell suspension was dispensed to a. plate containing a test compound at 100 μL per well and incubated at 37° C. in a 5% carbon dioxide gas incubator. 96 hours later, 80 μL of CellTiter-Glo (Promega) was added to each well and fluorescence was measured.
In the case of `CC[C@H](C)[C@@H]1NC(=O)[C@H](C)N(C)C(=O)C[C@@H](C)NC(=O)[C@H](C2CCCCC2)N(C)C(=O)C2(CCCC2)NC(=O)[C@@H]2CCCN2C(=O)[C@H](CCc2ccc(C(F)(F)F)c(Cl)c2)NC(=O)CN(C)C(=O)[C@H](CC2CCCCC2)N(C)C(=O)CN(C)C(=O)CN(C)C1=O` [Compound 1688] (cyclo([Ac5c][NMeChg][d(β3hA)][NMeA]I[Sar][Sar][NMeCha][Sar][hPhe(3-Cl-4-CF3)]P)), the IC50 is more than 500 nM.

`CCC[C@H]1C(=O)N[C@@H]([C@@H](C)CC)C(=O)N(C)CC(=O)N(C)CC(=O)N(C)[C@@H](Cc2ccc(C)cc2)C(=O)N(C)CC(=O)N[C@@H](CCc2cc(F)c(C(F)(F)F)c(F)c2)C(=O)N2CC(F)(F)C[C@H]2C(=O)NC2(CCCC2)C(=O)N(C)[C@@H](C2CCCCC2)C(=O)N(C)[C@H](C(=O)N2CCCC2)CC(=O)N1C` [Compound 1306] ([NMeNva]I[Sar][Sar][NMePhe(4-Me)][Sar][hPhe(3,5-F2-4-CF3)][Pro(4,4-F2)][Ac5c][NMeChg][NMeD]-Pyrrolidide; lactam N-11): the IC50 was not above 20 nM.

For `CC[C@H](C)[C@@H]1NC(=O)[C@H](C)N(C)C(=O)C[C@@H](C)NC(=O)[C@H](C2CCCC2)N(C)C(=O)C2(CCCC2)NC(=O)[C@@H]2CCCN2C(=O)[C@H](CCc2ccc(C(F)(F)F)c(Cl)c2)NC(=O)[C@@H](C)N(C)C(=O)[C@H](Cc2ccc(C)cc2)N(C)C(=O)CN(C)C(=O)CN(C)C1=O` [Compound 1465] (cyclo([Ac5c][NMeGly(cPent)][d(β3hA)][NMeA]I[Sar][Sar][NMePhe(4-Me)][dNMeA][hPhe(3-Cl-4-CF3)]P)), the IC50 was more than 500 nM.

Regarding `C#CC[C@@H]1NC(=O)[C@H](Cc2cccc(I)c2)NC(=O)CN(C)C(=O)[C@H](Cc2ccc(Cl)cc2)N(C)C(=O)[C@@H]2CCN2C(=O)[C@H](C)N(C)C(=O)[C@H]([C@@H](C)CC)NC(=O)[C@H](CC(C)C)N(C)C(=O)C[C@@H](C(=O)N2CCCCC2)N(C)C(=O)[C@H](CC(C)C)NC(=O)C(C)(C)N(C)C1=O` [Compound 1428] ([NMeL]I[NMeA][Aze][NMePhe(4-Cl)][Sar][Phe(3-I)][Pra][NMeAib]L[NMeD]-Piperidide; lactam N-11), the IC50 is more than 500 nM.

Regarding `CC[C@H](C)[C@@H]1NC(=O)[C@H](CC(C)C)N(C)C(=O)C[C@@H](C)NC(=O)[C@H](C(C)C)N(C)C(=O)C2(CCCC2)NC(=O)[C@@H]2CCCN2C(=O)[C@H](CCc2ccc(C(F)(F)F)c(Cl)c2)NC(=O)CN(C)C(=O)[C@H](CC2CC2)N(C)C(=O)CN(C)C(=O)CN(C)C1=O` [Compound 511] (cyclo([Ac5c][NMeV][d(β3hA)][NMeL]I[Sar][Sar][NMeAla(cPr)][Sar][hPhe(3-Cl-4-CF3)]P)), the IC50 is more than 500 nM.

As for `CC[C@H](C)[C@@H]1NC(=O)[C@H](CC(C)C)N(C)C(=O)C[C@@H](C)N(C)C(=O)[C@H](CC(C)C)NC(=O)C(C)(C)N(C)C(=O)[C@H](CC(C)C)NC(=O)[C@H](CCc2ccc(C(F)(F)F)c(F)c2)NC(=O)CN(C)C(=O)[C@H](CC2CCCCC2)N(C)C(=O)[C@@H]2CCN2C(=O)CN(C)C1=O` [Compound 178] (cyclo([Aze][NMeCha][Sar][hPhe(3-F,4-CF3)]L[NMeAib]L[NMedβ3hAla][NMeL]I[Sar])), the IC50 is more than 500 nM.

On to `CC[C@H](C)[C@@H]1NC(=O)[C@H](CC(C)C)N(C)C(=O)C[C@@H](C(=O)N2CCN(C3COC3)CC2)NC(=O)[C@H](C(C)C)N(C)C(=O)C2(CCCC2)NC(=O)[C@@H]2CCCN2C(=O)[C@H](CCc2ccc(C(F)(F)F)c(Cl)c2)NC(=O)CN(C)C(=O)[C@H](CC2CCCCC2)N(C)C(=O)[C@@H]2CCN2C(=O)[C@H](C)N(C)C1=O` [Compound 1294] ([NMeL]I[NMeA][Aze][NMeCha][Sar][hPhe(3-Cl-4-CF3)]P[Ac5c][NMeV]D-{Piperazinyl(4-(3-oxetanyl))}; lactam N-11), for which the IC50 is more than 500 nM.

Consider `CC[C@H](C)[C@@H]1NC(=O)[C@H](CC(C)C)N(C)C(=O)C[C@@H](C(=O)N2CCCCC2)N(C)C(=O)[C@H](C2CCCC2)N(C)C(=O)C2(CCCC2)NC(=O)[C@@H](COCCC(C)C)N(C)C(=O)[C@H](CCc2ccc(C(F)(F)F)c(Cl)c2)NC(=O)CN(C)C(=O)[C@H](CC2CCCCC2)N(C)C(=O)CN(C)C(=O)CN(C)C1=O` [Compound 1440] ([NMeL]I[Sar][Sar][NMeCha][Sar][hPhe(3-Cl-4-CF3)][dNMeS](Isopentyl)[Ac5c][NMeGly(cPent)][NMeD]-Piperidide; lactam N-11), for which the IC50 is more than 500 nM.

With `CC[C@H](C)[C@@H]1NC(=O)[C@H](CC(C)C)N(C)C(=O)C[C@@H](C(=O)N2CCCCC2)N(C)C(=O)[C@H](C2CCCCC2)N(C)C(=O)C2(CCCC2)NC(=O)[C@@H](C)NC(=O)[C@H](CCc2ccc(C(F)(F)F)c(Cl)c2)NC(=O)CN(C)C(=O)[C@H](CC2CCCCC2)N(C)C(=O)CN(C)C(=O)CN(C)C1=O` [Compound 277] ([NMeL]I[Sar][Sar][NMeCha][Sar][hPhe(3-Cl-4-CF3)][dA][Ac5c][NMeChg][NMeD]-Piperidide; lactam N-11), the IC50 was more than 500 nM.

`CC[C@H](C)[C@@H]1NC(=O)[C@H](CC(C)C)NC(=O)[C@@H]2CCCC[C@H]2NC(=O)[C@H](C(C)C)N(C)C(=O)C2(CCCC2)NC(=O)[C@@H]2CCCN2C(=O)[C@H](CCc2ccc(C(F)(F)F)c(Cl)c2)NC(=O)CN(C)C(=O)[C@H](CC2CCCCC2)N(C)C(=O)CN(C)C(=O)CN(C)C1=O` [Compound 569] (cyclo([Ac5c][NMeV][ACHC(1R,2R)]LI[Sar][Sar][NMeCha][Sar][hPhe(3-Cl-4-CF3)]P)): the IC50 is more than 500 nM.

Consider `CC[C@H](C)[C@@H]1NC(=O)[C@H](CC(C)C)N(C)C(=O)C[C@@H](C(=O)N2CCS(=O)(=O)CC2)N(C)C(=O)[C@H](C(C)C)N(C)C(=O)C2(CCCC2)NC(=O)[C@@H]2CCCN2C(=O)[C@H](CCc2ccc(C(F)(F)F)c(Cl)c2)NC(=O)CN(C)C(=O)[C@H](CC2CCCCC2)N(C)C(=O)[C@@H]2CCN2C(=O)[C@H](C)N(C)C1=O` [Compound 1238] ([NMeL]I[NMeA][Aze][NMeCha][Sar][hPhe(3-Cl-4-CF3)]P[Ac5c][NMeV][NMeD]-{Thiomorpholino(1,1-dioxo)}; lactam N-11), for which the IC50 was more than 500 nM.

Take `CC[C@H](C)[C@@H]1NC(=O)[C@H](CC(C)C)N(C)C(=O)C[C@@H](C(=O)N2CCOCC2)N(C)C(=O)[C@H]([C@@H](C)CC)N(C)C(=O)C2(CCCC2)NC(=O)[C@@H]2CCCN2C(=O)[C@H](CCc2ccc(C(F)(F)F)c(Cl)c2)NC(=O)CN(C)C(=O)[C@H](CC2CCCCC2)N(C)C(=O)CN(C)C(=O)CN(C)C1=O` [Compound 1979] ([NMeL]I[Sar][Sar][NMeCha][Sar][hPhe(3-Cl-4-CF3)]P[Ac5c][NMeI][NMeD]-Morpholide; lactam N-11): the IC50 is not above 20 nM.

In the case of `CC[C@H](C)[C@@H]1NC(=O)[C@H](CC(C)C)N(C)C(=O)C[C@@H](C(=O)N2CCCCC2)N(C)C(=O)[C@H](CC(C)C)NC(=O)C(C)(C)N(C)C(=O)[C@H](Cc2ccccc2Cl)NC(=O)[C@H](Cc2cccc(I)c2)NC(=O)CN(C)C(=O)[C@H](Cc2ccc(C)cc2)N(C)C(=O)CN(C)C(=O)CN(C)C1=O` [Compound 706] ([NMeL]I[Sar][Sar][NMePhe(4-Me)][Sar][Phe(3-I)][Phe(2-Cl)][NMeAib]L[NMeD]-Piperidide; lactam N-11), the IC50 is more than 500 nM.
